Patent US10316041B2, “Spiro-lactam NMDA receptor modulators and uses thereof” (Apytinyx Inc., priority 2013, dated 2019)
Like-named read-outs stand apart in the source and are kept apart here.

Experiments:
[1] = Porsolt test (floating time); format: in vivo; conditions: 3 mg/kg, IV, 1 hour post dose
[2] = system: Schaffer collateral-CA1 synapses in hippocampal slices; assay: Long term potentiation in hippocampal slices; format: cell-based, rat
Description: Assays were conducted as described in Zhang et al. (Zhang, X. L., Sullivan, J. A., Moskal, J. R., Stanton, P. K., 2008. A NMDA receptor glycine site partial agonist, GLYX-13, simultaneously enhances LTP and reduces LTD at Schaffer collateral-CA1 synapses in hippocampus. Neuropharmacology. 55, 1238-50) Sprague-Dawley rats (12-18 days old; Taconic Farms) were deeply anesthetized with isoflurane and decapitated. Rat brains were removed rapidly, submerged in ice-cold artificial cerebrospinal fluid (ACSF, 2-4° C.), which contained (in mM): 124 NaCl, 4 KCl, 2 MgSO4, 2 CaCl2, 1.25 NaH2PO4, 26 NaHCO3, 10 glucose; at pH 7.4, gassed continuously with 95% O2/5% CO2). The rat brains were hemisected, the frontal lobes cut off, and individual hemispheres glued using cyanoacrylate adhesive onto a stage immersed in ice-cold ACSF gassed continuously with 95% O2/5% CO2 during slicing. Coronal slices (400 μm thick) were cut using a Vibratome (Leica VT1200S), and transferred to an interface holding chamber for incubation at room temperature for a minimum of one hour before transferring to a Haas-style interface recording chamber continuously perfused at 3 ml/min with oxygenated ACSF at 32±0.5° C. […] A bipolar stainless steel stimulating electrode (FHC Co.) was placed on Schaffer collateral-commissural fibers in CA3 stratum radiatum, and constant current stimulus intensity adjusted to evoke approximately half-maximal fEPSPs once each 30 s ([…]; 100 μs duration). fEPSP slope was measured before and after induction of LTP by linear interpolation from 20 to 80% of maximum negative deflection, and slopes confirmed to be stable to within ±10% for at least 15 min before commencing an experiment. […] The signals were recorded using a Multiclamp 700B amplifier and digitized with a Digidata 1322 (Axon Instruments, USA). Data were analyzed using pClamp software (version 9, Axon Instruments) on an IBM-compatible personal computer.

[3] = target: T1, NMDA receptor (rat cortical membranes) (Rattus norvegicus, UniProt P35439); assay: [3H]MK-801 binding assay (potentiation of binding); conditions: for Activity (%): maximal activity, % maximal stimulation (1 mM glycine)
T1 construct: from tissue; host or cells: rat cerebral cortex membranes
Description: Assays were conducted as described in Moskal et al. (Moskal, J. R., Kuo, A. G., Weiss, C., Wood, P. L., O'Connor Hanson, A., Kelso, S., Harris, R. B., Disterhoft, J. F., 2005. GLYX-13: a monoclonal antibody-derived peptide that acts as an N-methyl-D-aspartate receptor modulator. Neuropharmacology. 49, 1077-87) The potentiation of [^3H]MK-801 binding (5 nM; 22.5 Ci/mmol) to well washed rat cortical membranes (200 μg) was measured under non-equilibrium conditions (15 min @ 25° C.) in the presence of increasing concentrations of test compounds and 50 μM glutamate. Zero levels were determined in the absence of any glycine ligand and in the presence of 30 μM 5.7 DCKA. Maximal stimulation was measured in the presence of 1 mM glycine, and 50 μM glutamate was present in all samples. The facilitation of [^3H]MK-801 binding by tests compounds was calculated by using a 3 parameter log agonist vs. response equation (Graph pad Prism, USA) and potency (EC50 expressed in pM) and maximal activity (% maximal stimulation) were calculated for the test compound.

[4] = read-out: [3H] MK-801 binding assay: EC50
[5] = potentiation of [3H]MK-801 binding, 50 μM glutamate, rat cortical membranes, read-out: pEC50 (converted)

Molecule | EC50 [3, 4] [nM] | Activity (%) [3] [%] | EC50 [3, 5] [nM] | further results
CC(=O)N1CCCC12CN(CC(=O)N[C@H](C(N)=O)[C@@H](C)O)C2=O (single isomer, unassigned) [Compound 6S-FNL-7-F2] | – | – | – | Unified Activity Data: Porsolt Floating Time Inhibition (Percent) [1]: 80%; Unified Activity Data: LTP Augmentation (Percent) ([2]; LTP Concentration 1 uM): 150%
C[C@@H](O)[C@H](NC(=O)CN1CC2(CCCN2C(=O)OCc2ccccc2)C1=O)C(N)=O (stereo in doubt) [Compound 6S-FNL-4, Benzyl 2-(2-((1-amino-3-hydroxy-1-oxobutan-2-yl)amino)-2-oxoethyl)-1-oxo-2,5-diazaspiro [3.4] octane-5-carboxylate] | > 10000 | – | – | –
CC(=O)O[C@H](C)[C@H](NC(=O)CN1CC2(CCCN2)C1=O)C(N)=O (stereo partly drawn) [Compound 6S-FNL-3, (2R, 3S)-4-amino-4-oxo-3-(2-(1-oxo-2,5-diazaspiro [3.4]octan-2-yl)acetamido) butan-2-yl acetate] | 1690 | – | – | –
C[C@@H](O)[C@H](NC(=O)CN1CC2(CCCN2C(=O)c2ncnn2C)C1=O)C(N)=O (stereo partly drawn) [Compound C, (2S,3R)-3-hydroxy-2-(2-(5-(1-methyl-1H-1,2,4-triazole-5-carbonyl)-1-oxo-2,5-diazaspiro[3.4]octan-2-yl)acetamido) butanamide] | – | 10 | 0.007 | –
C[C@@H](O)[C@H](NC(=O)CN1CC2(CCCN2C(=O)c2ncnn2C)C1=O)C(=O)N1CCCC1 (stereo partly drawn) [Compound D, N-((2S, 3R)-3-hydroxy-1-oxo-1-(pyrrolidin-1-yl)butan-2-yl)-2-(5-(1-methyl-1H-1,2,4-triazole-5-carbonyl)-1-oxo-2,5-diazaspiro[3.4]octan-2-yl) acetamide] | – | 5 | 0.159 | –
CC(=O)N1CCCC12CN(CC(=O)N[C@H](C(N)=O)[C@@H](C)O)C2=O (stereo partly drawn) [Compound H, (2S,3R)-2-(2-(5-acetyl-1-oxo-2,5-diazaspiro[3.4]octan-2-yl)acetamido)-3-hydroxy butanamide] | – | 20 | 0.195 | –
(2R, 3S)-4-amino-3-(2-(5-(1-benzyl-5-methyl-1H-1, 2, 3-triazole-4-carbonyl)-1-oxo-2, 5-diazaspiro [3.4] octan-2-yl) acetamido)-4-oxobutan-2-yl acetate [Compound B] | 0.00727 | 47 | 0.006 | Unified Activity Data: Porsolt Floating Time Inhibition (Percent) [1]: 86%; Unified Activity Data: LTP Augmentation (Percent) ([2]; LTP Concentration 0.1 uM): 110%; long-term potentiation after high frequency stimulation of Schaffer collateral-evoked NMDA e.p.s.c.s in CA1 pyramidal neurons ([2]; tested at 0.11 μM, FIG. 5): increased long-term potentiation
